Reference: patent US20250333714A1, “ARTIFICIAL DNA REPLISOME AND METHODS OF USE THEREOF” (Regents of the University of Minnesota, priority 2021, published 2025)

How the values were obtained:
[1] = test system: kanR* gene on target plasmid; assay: kanR* reversion assay (frequency of kanamycin-resistant colonies); type: cell-based, E. coli
Description: Three DNA elements were added to E. coli to create a targeted error-prone artificial replisome: a constitutively-expressed, chromosomal CisA gene, a target vector plasmid and a helper vector plasmid (FIG. 1A-1B and FIG. 5). The target vector contained the gene(s) of interest targeted for mutagenesis between the CisA initiation and termination sequences. To quantify the increase in mutagenesis, mutagenesis was targeted to the gene for a kanamycin resistance protein (aminoglycoside phosphotransferase (3)-IIIa). This gene, named kanR*, carried a single nucleotide substitution (A785C), which encodes an E262A amino acid substitution that inactivates the kanamycin resistance (Thompson et al., J Biol Chem, 274 (43): 30697-30706, (1999)). Mutations that reverse this substitution will restore gene function, allowing the cells to grow in the presence of kanamycin. Resistant colony-forming unit (CFU) per pl of full density culture (frequency of resistant CFU per cell plated) is used as a readout for mutagenic capacity. The helper plasmid contains a gene encoding the fusion of the error-prone T5 DNA polymerase to the Rep helicase under the control of a T7 promoter. (The host cell also contains a chromosomal gene to express the T7 RNA polymerase and a deletion of the chromosomal Rep gene to eliminate potential competition with the fusion protein.)
The DNA polymerase activity of the T5 DNA polymerase-Rep helicase fusion protein was measured by its capacity to mutate the target, kanR* and restore kanamycin resistance. The bacteria, in this Example, contained all three elements of the targeted error-prone artificial replisome: a constitutively-expressed, chromosomal CisA gene, the target plasmid carrying the kanR* gene flanked by the initiation and termination sequences, and the helper plasmid expressing the T5 DNA polymerase-Rep helicase fusion protein. These cells were picked from a transformation plate, propagated in liquid for ten generations to accumulate mutations and then plated onto kanamycin-containing media for selection.
KanR* reversion assay was used. Three transformations were carried out, all into the host cell for TADR, as shown in FIG. 2C: the helper plasmid with the wildtype T5 polymerase co-transformed with the target plasmid; the helper plasmid with the error-prone T5 polymerase mutant, with the target plasmid without the recognition and termination sequences; the helper plasmid with the error-prone T5 polymerase mutant, with the target plasmid. Transformant colonies were selected on LB agar plates supplemented with 15 ng/μl chloramphenicol and 50 ng/μl ampicillin and inoculated to a liquid LB cultures with chloramphenicol and ampicillin. After overnight growth, 50 μl culture from each sample was plated on LB plates supplemented with 30 ng/μl kanamycin. After 16 h incubation at 37° C., colonies were counted.

[2] = test system: bacteria lacking endogenous Rep helicase; assay: assay of sensitivity to nalidixic acid (Rep helicase activity); type: cell-based, E. coli; details: 2.5 ng/μl nalidixic acid; rep- cells with helper plasmid
Description: The Rep helicase activity of the T5 DNA polymerase-Rep helicase fusion was measured by its ability to alleviate growth retardation caused by nalidixic acid in a strain lacking endogenous Rep helicase (Henderson et al., PLOS ONE, 10 (5): e0128092, (2015)). Bacteria normally tolerate low levels of nalidixic acid, but bacteria lacking endogenous Rep helicase grow more slowly because nalidixic acid inhibits DNA gyrase and topoisomerase.
Assay of sensitivity to nalidixic acid was used(Henderson et al., PLOS ONE, 10 (5): e0128092, (2015)). Three cell lines were prepared, namely TADR cells modified to have intact chromosomal rep, TADR cells (rep-) and TADR cells (rep-) transformed with helper plasmid (expressing the fusion protein). A Rep gene knockout mutation was P1-transduced from Keio-collection(Baba et al., Mol Syst Biol, 2 2006.0008-2006.0008, (2006)) into the host cell for using standard technique of molecular cloning(Green, (2012)). The helper plasmid was transformed into this rep-cell and selected on LB agar plate supplemented with 50 ng/μl ampicillin. From this cell line together with other two—the host cell for, its rep-derivative, single colonies were inoculated into liquid LB culture (ampicillin was added to cultures of the first cell line). […]

[3] = test system: primed DNA substrate; assay: association of DNA polymerase with primed DNA substrate; type: binding; details: local effective concentration of polymerase 0.2-0.6 mM; kon of T7 assumed
Description: The artificial replisome must simultaneously unwind DNA and copy the exposed strand to prevent degradation of the exposed ssDNA, which causes genetic instability. In addition, DNA synthesis must avoid premature termination within the target region. Connecting Rep helicase and T5 DNA polymerase with a flexible linker increases the local effective concentrations to an estimated 0.2-0.6 mM(Li et al., Protein Sci, 27 (9): 1600-1610, (2018)) in order to achieve both of these goals. The CisA protein recruits Rep helicase to the target region and stabilizes it. Rep helicase unwinds DNA at about 144 base-pairs/s (Arslan et al., Science (New York, N.Y.), 348 (6232): 344-347, (2015)), so DNA synthesis must initiate at least that fast to proceed simultaneously. The bimolecular association rate constant of T7 DNA polymerase (kon) for primed DNA substrate is 3.6×10^7M^−1s^−1 (Luo et al., Proceedings of the National Academy of Sciences, 104 (31): 12610-12615, (2007)) and it was assumed T5 DNA polymerase associates at a similar rate. If the local effective concentration of polymerase is 0.2-0.6 mM, then the rate of association is 7200-22,000 s^−1, which far exceeds the rate of unwinding. […]

[4] = six-His tag linked to C-terminus; cited from earlier work
[5] = test system: primed DNA substrate; details: cited from earlier work

T5 DNA polymerase-Rep helicase fusion protein: T5 DNA polymerase (D164A, E166A, A593R) linked by 81-amino acid linker to Rep helicase; SEQ ID NO:22
frequency of kanamycin-resistant colonies, fold over control whose target plasmid was without initiation sequence ([1]; LB): 4.2 fold | frequency of kanamycin-resistant colonies, fold increase over control with wildtype T5 DNA polymerase ([1]; LB, wildtype Rep, T5 D164A, E166A, A593R): 128 fold | increase in mutation rate from engineered 5′ UTR ([1]; stem-loop designed into 5′ UTR of the fusion gene): up to 150 fold | effect on nalidixic acid inhibition of growth [2]: partially alleviated

fusion containing RepΔC33: fusion protein in which the 33 C-terminal amino acids of Rep helicase were deleted; SEQ ID NO:10
frequency of kanamycin-resistant colonies, fold over control whose target plasmid was without initiation sequence ([1]; LB): 67 fold | increase in selectivity from RepΔC33 versus wildtype Rep ([1]; LB): 16 fold

B1: I308V: self-evolved variant of error-prone T5 DNA polymerase with single I308V substitution; SEQ ID NO:3 (protein)
chain: MKIAVVDKALNNTRYDKHFQLYGEEVDVFHMCNEKLSGRLLKKHITIGTPENPFDPNDYDFVILVGAEPFLYFAGKKGIGDYTGKRVEYNGYANWIASISPAQLHFKPEMKPVFDATVENIHDIINGREKIAKAGDYRPITDPDEAEEYIKMVYNMVIGPVAFASATSALYCRDGYLLGVSISHQEYQGVYIDSDCLTEVAVYYLQKILDSENHTIVFHNLKFDMHFYKYHLGLTFDKAHKERRLHDTMLQHYVLDERRGTHGLKSLAMKYTDMGDYDFELDKFKDDYCKAHKIKKEDFTYDLIPFDVMWPYAAKDTDATIRLHNFFLPKIEKNEKLCSLYYDVLMPGCVFLQRVEDRGVPISIDRLKEAQYQLTHNLNKAREKLYTYPEVKQLEQDQNEAFNPNSVKQLRVLLFDYVGLTPTGKLTDTGADSTDAEALNELATQHPIAKTLLEIRKLTKLISTYVEKILLSIDADGCIRTGFHEHMTTSGRLSSSGKLNLQQLPRDESIIKGCVVAPPGYRVIAWDLTTAEVYYAAVLSGDRNMQQVFINMRNEPDKYPDFHSNIAHMVFKLQCEPRDVKKLFPALRQAAKRITFGILYGSGPAKVAHSVNEALLEQAAKTGEPFVECTVADAKEYIETYFGQFPQLKRWIDKCHDQIKNHGFIYSHFGRKRRLHNIHSEDRGVQGEEIRSGFNAIIQSASSDSLLLGAVDADNEIISLGLEQEMKIVMLVHDSVVAIVREDLIDQYNEILIRNIQKDRGISIPGCPIGIDSDSEAGGSRDYSCGKMKKQHPSIACIDDDEYTRYVKGVLLDAEFEYKKLAAMDKEHPDHSKYKDDKFIAVCKDLDNVKRILGA
increase in mutation rate (kanamycin-resistant CFU) from self-evolution / I308V ([1]; versus ancestor error-prone T5 DNA polymerase): 3.2 fold

B2: T5 DNA polymerase: DNA polymerase of bacteriophage T5, NCBI YP_006950.1, SEQ ID NO:1 (protein)
chain: MKIAVVDKALNNTRYDKHFQLYGEEVDVFHMCNEKLSGRLLKKHITIGTPENPFDPNDYDFVILVGAEPFLYFAGKKGIGDYTGKRVEYNGYANWIASISPAQLHFKPEMKPVFDATVENIHDIINGREKIAKAGDYRPITDPDEAEEYIKMVYNMVIGPVAFDSETSALYCRDGYLLGVSISHQEYQGVYIDSDCLTEVAVYYLQKILDSENHTIVFHNLKFDMHFYKYHLGLTFDKAHKERRLHDTMLQHYVLDERRGTHGLKSLAMKYTDMGDYDFELDKFKDDYCKAHKIKKEDFTYDLIPFDIMWPYAAKDTDATIRLHNFFLPKIEKNEKLCSLYYDVLMPGCVFLQRVEDRGVPISIDRLKEAQYQLTHNLNKAREKLYTYPEVKQLEQDQNEAFNPNSVKQLRVLLFDYVGLTPTGKLTDTGADSTDAEALNELATQHPIAKTLLEIRKLTKLISTYVEKILLSIDADGCIRTGFHEHMTTSGRLSSSGKLNLQQLPRDESIIKGCVVAPPGYRVIAWDLTTAEVYYAAVLSGDRNMQQVFINMRNEPDKYPDFHSNIAHMVFKLQCEPRDVKKLFPALRQAAKAITFGILYGSGPAKVAHSVNEALLEQAAKTGEPFVECTVADAKEYIETYFGQFPQLKRWIDKCHDQIKNHGFIYSHFGRKRRLHNIHSEDRGVQGEEIRSGFNAIIQSASSDSLLLGAVDADNEIISLGLEQEMKIVMLVHDSVVAIVREDLIDQYNEILIRNIQKDRGISIPGCPIGIDSDSEAGGSRDYSCGKMKKQHPSIACIDDDEYTRYVKGVLLDAEFEYKKLAAMDKEHPDHSKYKDDKFIAVCKDLDNVKRILGA
modifications: Escherichia virus T5
rate of association [3]: 7200-22,000 s^−1 | effect of six-His tag on polymerase activity [4]: did not interfere with polymerase activity

B3: T7 DNA polymerase: bacteriophage T7 DNA polymerase, used in the initial failed TADR (protein, UniProt P00581 1-704, looked up)
DNA-directed DNA polymerase: MIVSDIEANALLESVTKFHCGVIYDYSTAEYVSYRPSDFGAYLDALEAEVARGGLIVFHNGHKYDVPALTKLAKLQLNREFHLPRENCIDTLVLSRLIHSNLKDTDMGLLRSGKLPGKRFGSHALEAWGYRLGEMKGEYKDDFKRMLEEQGEEYVDGMEWWNFNEEMMDYNVQDVVVTKALLEKLLSDKHYFPPEIDFTDVGYTTFWSESLEAVDIEHRAAWLLAKQERNGFPFDTKAIEELYVELAARRSELLRKLTETFGSWYQPKGGTEMFCHPRTGKPLPKYPRIKTPKVGGIFKKPKNKAQREGREPCELDTREYVAGAPYTPVEHVVFNPSSRDHIQKKLQEAGWVPTKYTDKGAPVVDDEVLEGVRVDDPEKQAAIDLIKEYLMIQKRIGQSAEGDKAWLRYVAEDGKIHGSVNPNGAVTGRATHAFPNLAQIPGVRSPYGEQCRAAFGAEHHLDGITGKPWVQAGIDASGLELRCLAHFMARFDNGEYAHEILNGDIHTKNQIAAELPTRDNAKTFIYGFLYGAGDEKIGQIVGAGKERGKELKKKFLENTPAIAALRESIQQTLVESSQWVAGEQQVKWKRRWIKGLDGRKVHVRSPHAALNTLLQSAGALICKLWIIKTEEMLVEKGLKHGWDGDFAYMAWVHDEIQVGCRTEEIAQVVIETAQEAMRWVGDHWNFRCLLDTEGKMGPNWAICH
targeted mutagenesis ([1]; TADR implemented with T7 DNA polymerase): no targeted mutagenesis was seen | bimolecular association rate constant (kon) [5]: 3.6e+07 M⁻¹ s⁻¹
